Source: patent publication US8044098B2, “Use of hydroxybenzoic acids and their esters and analogues for preventing or treating virus infection” (Shenghua Guangzhou Pharmaceutical Science & Technology Co., …, priority 2005, dated 2011)

Key:
HPV 6/11 = assay: Drug screening by quantitative fluorescent PCR analysis of HPV 6/11 in condyloma acuminata homogenate; parameters: species or system human papillomavirus (HPV); settings: for HPV 6/11 Virus (copies/ml): 50 μl 10% micro emulsion + 50 μl HPV sample homogenate, 37° C., 24 hours, saline control 1.45 × 10^6; for HPV 6/11 detected by FQ-PCR (in words): 24 hours after adding the test compound
HPV 16/18 = assay: Drug screening by quantitative fluorescent PCR analysis of HPV 16/18 in condyloma acuminata homogenate; parameters: species or system human papillomavirus (HPV); settings: for HPV 16/18 Virus (copies/ml): 50 μl 10% micro emulsion + 50 μl HPV sample homogenate, 37° C., 24 hours, saline control 1.40 × 10^5; for HPV 16/18 detected by FQ-PCR (in words): 24 hours after adding the test compound
[1] = test system: secretion of HBsAg by 2.2.15 cells; assay: Inhibition of secretion of HBsAg by Hepatitis B 2.2.15 cell line; type: cell-based, HBV; settings: 1 μmol/ml
Excerpt: (§1) Hepatitis B 2.2.15 cell line was transfected by HBV DNA (purchased from Institute of Biochemistry and Cell Biology of Shanghai Institute for Biological Sciences or the National Center for Drug Screening) and used as the cell model for screening anti-HBV drug compounds (See Chinese Journal Of Integrated Traditional and Western Medicine on Liver Diseases, 2004, 14(3): 158). The cell culture medium DMEM (GIBCO Company), bovine serum (Hangzhou Siji Qing Biochemical Manufacturer), G418 (GIBCO Company), 3-(4,5-dimethylthiazol-2-yl)-2,5-diphenyltetrazoliumbromide (Sigma), HBsAg and HBeAg diagnostic kit (Shanghai Kehua Bio-engineering Co., Ltd).
(§2) The test compounds listed in Table 3 below were dissolved in a mixture containing 20 ml 1,2-propylene glycol and 15 ml Tween-80 and diluted with sterile saline water to 2 μmol/ml of the test compound. Then it was mixed with the cell culture medium at equal volume to obtain a solution containing 1 μmol/ml of the tested compound. Cells at the concentration of 1×10^5 cells per milliliter were inoculated to a 24-well plate at 1 ml/well. Supernatant from the cell culture mixture was collected three days later for testing.

[2] = test system: secretion of HBeAg by 2.2.15 cells; assay: Inhibition of secretion of HBeAg by Hepatitis B 2.2.15 cell line; type: cell-based, HBV; settings: 1 μmol/ml
Excerpt: as §1, §2

[3] = 2.2.15 cells, supernatant collected three days later

For `CCCCCCCCCCCCOC(=O)c1cc(O)c(O)c(O)c1` [dodecyl gallate, Dodecyl gallate], the “HPV 6/11 Virus (copies/ml)” value (HPV 6/11) was 6.70 × 10^4 copies/ml and the “HPV 16/18 Virus (copies/ml)” value (HPV 16/18) was 4.90 × 10^4 copies/ml.
In the case of `COC(=O)c1cc(O)c(O)c(O)c1` [Methyl gallate], the “HPV 6/11 Virus (copies/ml)” value (HPV 6/11) is reported as 0 copies/ml, the “HPV 6/11 detected by FQ-PCR (in words)” value (HPV 6/11) is reported as “no HPV 6/11 or HPV 16/18 was detected” and the “HPV 16/18 Virus (copies/ml)” value (HPV 16/18) is reported as 0 copies/ml. For the same molecule, the “HPV 16/18 detected by FQ-PCR (in words)” value (HPV 16/18) was “no HPV 6/11 or HPV 16/18 was detected”.
`O=C(O)c1cccc(O)c1O` [2,3-dihydroxybenzoic acid] was tested, and the “HPV 6/11 Virus (copies/ml)” value (HPV 6/11) was 2.30 × 10^4 copies/ml and the “HPV 16/18 Virus (copies/ml)” value (HPV 16/18) was 3.20 × 10^3 copies/ml.
For `CCOC(=O)c1cc(O)c(O)c(O)c1` [Ethyl gallate], the “HPV 6/11 Virus (copies/ml)” value (HPV 6/11) was 0 copies/ml, the “HPV 6/11 detected by FQ-PCR (in words)” value (HPV 6/11) was “no HPV 6/11 or HPV 16/18 was detected” and the “HPV 16/18 Virus (copies/ml)” value (HPV 16/18) was 0 copies/ml. The “HPV 16/18 detected by FQ-PCR (in words)” value (HPV 16/18) was “no HPV 6/11 or HPV 16/18 was detected”.
For `CCCCCCCCOC(=O)c1cccc(O)c1O` [Octyl 2,3-dihydroxybenzoate], the “HPV 6/11 Virus (copies/ml)” value (HPV 6/11) was 2.20 × 10^2 copies/ml and the “HPV 16/18 Virus (copies/ml)” value (HPV 16/18) was 1.50 × 10^2 copies/ml.
In the case of `O=C(O)c1ccc(O)cc1O` [2,4-dihydroxybenzoic acid], the “HPV 6/11 Virus (copies/ml)” value (HPV 6/11) is reported as 1.60 × 10^4 copies/ml and the “HPV 16/18 Virus (copies/ml)” value (HPV 16/18) is reported as 4.60 × 10^3 copies/ml.
With `O=C(O)c1ccc(O)c(O)c1O` [2,3,4-trihydroxybenzoic acid] the “HPV 6/11 Virus (copies/ml)” value (HPV 6/11) was 0 copies/ml, the “HPV 6/11 detected by FQ-PCR (in words)” value (HPV 6/11) was “no HPV 6/11 or HPV 16/18 was detected” and the “HPV 16/18 Virus (copies/ml)” value (HPV 16/18) was 0 copies/ml. For the same molecule, the “HPV 16/18 detected by FQ-PCR (in words)” value (HPV 16/18) was “no HPV 6/11 or HPV 16/18 was detected”.
In the case of `COC(=O)c1cccc(O)c1O` [Methyl 2,3-dihydroxybenzoate], the “HPV 6/11 Virus (copies/ml)” value (HPV 6/11) is reported as 3.00 × 10^4 copies/ml and the “HPV 16/18 Virus (copies/ml)” value (HPV 16/18) is reported as 4.20 × 10^2 copies/ml.
`O=C(O)c1ccc(O)c(O)c1` [3,4-dihydroxybenzoic acid] was tested, and the “HPV 6/11 Virus (copies/ml)” value (HPV 6/11) was 1.90 × 10^4 copies/ml, the “HPV 16/18 Virus (copies/ml)” value (HPV 16/18) was 8.50 × 10^4 copies/ml and the “effect on the secretion of HBsAg by the 2.2.15 cells (in words)” value [1] was “had inhibition effect”. For the same molecule, the “HBsAg Inhibition rate” value [1, 3] was 9.81%, the “effect on the secretion of HBeAg by the 2.2.15 cells (in words)” value [2] was “had inhibition effect” and the “HBeAg Inhibition Rate” value [2, 3] was 8.92%.
In the case of `O=C(O)c1ccccc1` [Benzoic acid, benzoic acid], the “HPV 6/11 Virus (copies/ml)” value (HPV 6/11) is reported as 3.60 × 10^5 copies/ml and the “HPV 16/18 Virus (copies/ml)” value (HPV 16/18) is reported as 2.90 × 10^4 copies/ml.
In the case of `COC(=O)c1ccc(O)c(O)c1` [Methyl 3,4-dihydroxybenzoate], the “HPV 6/11 Virus (copies/ml)” value (HPV 6/11) is reported as 8.50 × 10^4 copies/ml and the “HPV 16/18 Virus (copies/ml)” value (HPV 16/18) is reported as 6.00 × 10^2 copies/ml.
